Earlier results on one compound are cited in PubChem BioAssay AID1259409 (Chemical Carcinogenesis Research Information System (CCRIS), 2018).

SMILES strings stand for the structures.

This data set has as its system rodent chemically induced tumor inhibition, incidence and multiplicity. The experiment in a line: CCRIS tumor inhibitor studies. The settings on record: Carcinogen: 3-METHYLCHOLANTHRENE; 56-49-5; Dose [Inhibitor]: 0; 2.9 UMOL IN 0.1 ML ACETONE 1 HR PRIOR TO CARCINOGEN DOSE 2/WK FOR 16 WK (STUDY DURATION: 16 WK); Route [Inhibitor]: DERMAL; Species: MOUSE; Strain/Sex: BALB/FEMALE; Target Tissue: Type of Lesion: SKIN: TUMORS; Dose [Carcinogen]: 1.8 UMOL IN 0.2 ML ACETONE 2/WK FOR 16 WK; Promoter: NONE USED.

`Clc1ccccc1C(c1ccccc1)(c1ccccc1)n1ccnc1`: the “tumour outcome (control, treated, inhibition, significance)” value was 100%, 70%, 30%, p<0.05.
